Earlier results on two molecules are cited in patent US20230285554A1, “COMBINED MEDICATION FOR TREATING SOFT TISSUE SARCOMA” (CHIA TAI TIANQING PHARMACEUTICAL GROUP CO., LTD., priority 2020, published 2023).

For the data set, the system named is STS. To be noted: first-line chemotherapy.

Regarding `COc1cccc2c1C(=O)c1c(O)c3c(c(O)c1C2=O)C[C@@](O)(C(=O)CO)C[C@@H]3O[C@H]1C[C@H](N)[C@H](O)[C@H](C)O1` [adriamycin], the efficacy in words entry is “best efficacy”.
Take `O=P1(NCCCl)OCCCN1CCCl` (centres unmarked) [ifosfamide]: the efficacy in words result is listed as “best efficacy”.
